US20040106582A1, “Use of mglur5 antagonists for the treatment of pruritic conditions” (priority 2001, published 2004)

Tests used:
[1] = system: magnesium deficiency-induced dermatosis in rat; assay: model of magnesium deficiency-induced dermatosis in rat; type: in vivo; details: male hairless rats on low-magnesium diet, oral treatment at 6 mg/kg/day, 5 consecutive days
Source text: Activity of mGluR5 antagonists as antipruritics according to the invention is evidenced for example in a model of magnesium deficiency-induced dermatosis in rat. This dermatosis is characterised by a transient erythematous maculopapular rash associated with a severe generalised pruritus. The animals scratch and bite themselves causing excoriations and wounds on the head and trunk (Neckermann G., Bavandi A., Meingassner J. G., Br. J. Dermatol; 2000; 142: 669-679). According to this model, male hairless rats (Ico:OFA hr/hr) obtained from Iffa Credo (Lyon, France) at an age of 3 weeks are maintained with a diet low in magnesium (C10350, Altromin, Lage, Germany) and demineralised water. After onset of symptoms, the test compound is applied orally to 5 rats per group on 5 consecutive days. Control animals are treated similarly with the vehicle alone. Efficacy is assessed by clinical examination and semiquantitative assessment of skin lesions. The intensity and extend of the erythematous maculopapular rash is scored with 0 (not present) to 4 (most severe changes, involvement of the whole trunk). The intensity of pruritus is evaluated by the scoring of excoriations at the head, shoulders, lateral abdomen/flanks and caudal dorsal trunk with 0 (not present), 1 (few lesions) or […] (numerous lesions) resulting in a combined maximal score of 12 per animal. […]

[2] = system: itch induced in mice by Compound 48/80; assay: model of itch induced in mice by injection of the pruritic agent Compound 48/80; type: in vivo; details: C57BL/6 mice, 30 μg/10 μl s.c. Compound 48/80, oral administration of 3-30 mg/kg and 10-100 mg/kg, 30 min prior, observed 30 minutes
Description: Experiments are carried out on adult female and male C57BL/6 mice (25-30 g). Individual mice receive the test compound p.o. (a vehicle alone for control animals) 30 min. prior to subcutaneous injections of the above mentioned pruritic agent into the dorsal neck region and are then placed into a clear Perspex box. A maximum of 3 mice are closely and continuously observed by an experimenter for 30 minutes following injection. ‘Scratching episodes’ are defined as scratching focused at the site of injection using the hind paws, and differentiated from grooming behaviour that also involves licking and is systematically directed over all body regions. The duration of the itch behaviour is recorded by using a keyboard linked to three stop-clocks.

Row | SMILES | inflammatory skin reddening and infiltration [1] | signs of pruritus (scoring of excoriations) [1] | duration of scratching episodes induced by the pruritic agent [2]
1 | Cc1cccc(C#Cc2cccnc2)n1 [2-[2-(pyridin-3-yl)ethynyl]-6-methyl-pyridine] | is not inhibited | inhibits signs of pruritus | 
2 | Cc1cccc(C#Cc2ccccc2)n1 [2-methyl-6-phenylethynyl-pyridine] |  |  | significantly decreases
